The target of one data set is T1, human DGAT1 (Homo sapiens, UniProt O75907).
T1 construct: made in house; host or cells: insect cells (sf9, sf21 or High Five) infected with baculovirus; total cell membranes
T1 sequence (O75907 1-488): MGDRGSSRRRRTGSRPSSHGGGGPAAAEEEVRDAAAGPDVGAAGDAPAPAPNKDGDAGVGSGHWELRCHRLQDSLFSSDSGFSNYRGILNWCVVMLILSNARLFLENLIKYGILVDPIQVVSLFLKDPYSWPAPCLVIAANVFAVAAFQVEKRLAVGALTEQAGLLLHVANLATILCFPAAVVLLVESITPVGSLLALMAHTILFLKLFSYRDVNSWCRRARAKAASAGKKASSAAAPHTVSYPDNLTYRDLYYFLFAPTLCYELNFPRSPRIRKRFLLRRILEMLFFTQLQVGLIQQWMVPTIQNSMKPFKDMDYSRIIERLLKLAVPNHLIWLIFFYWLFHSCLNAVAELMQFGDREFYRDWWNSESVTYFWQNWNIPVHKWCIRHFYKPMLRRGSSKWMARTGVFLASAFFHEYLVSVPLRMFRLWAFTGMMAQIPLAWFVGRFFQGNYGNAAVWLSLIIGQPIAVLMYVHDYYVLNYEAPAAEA
In words: DGAT Scintillation Proximity Assay (SPA) with membranes of insect cells expressing human flagtag DGAT1. In kind it is biochemical. The conditions noted are these: read-out: hDGAT1 IC50. An outline of the steps: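 Membranes (0.2 μg/well) from insect cells expressing human flag-tagged DGAT1 incubated with 10 μM compound and 200 μM dioleoyl glycerol substrate; mercuric chloride as inhibition control. Reaction stopped with WGA SPA beads in mercuric chloride, overnight bead coupling, then scintillation proximity signal read.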
Background: SPA uses beads or plates that emit light when radiolabelled molecules are held near them.

Structures are written as SMILES.

The compound `CC1(C)Oc2ncnc(N)c2N=C1c1ccc([C@H]2CC[C@H](CCN3CCC(O)(c4ccccc4)CC3)CC2)cc1` [Example 2-85] displayed a melting point of 115 to 116 °C. Moreover, the IC50 on human DGAT1 was more than 100 nM.
For `CN(C)C(=O)CC[C@H]1CC[C@H](c2ccc(C3=Nc4c(N)ncnc4OC3(C)C)cc2)CC1` [Example 2-186], in that order: 200 to 201 °C and 10 to 100 nM.
In the same order, the values of `CC1(C)Oc2ncnc(N)c2N=C1c1ccc([C@H]2CC[C@H](C(=O)CO)CC2)cc1` [Example 2-254] are 213 to 214 °C and 10 to 100 nM.
In turn, `CC1(C)Oc2ncnc(N)c2N=C1c1ccc([C@H]2CC[C@H](Cc3cnc(C4CC4)[nH]3)CC2)cc1` [Example 2-120] yielded a melting point of 226 to 227 °C. The concentration for half-maximal inhibition (IC50) at human DGAT1 was in the range of 10 to 100 nM.
Compound `CC(C)(O)C[C@H]1CC[C@H](c2ccc(C3=Nc4c(N)ncnc4OC3(C)C)cc2)CC1` [Example 2-78] displayed a melting point of 185 to 187 °C. At human DGAT1, the IC50 fell in the range of 10 to 100 nM.
Take `Cc1nc(N)c2c(n1)OC(C)(C)C(c1ccc([C@H]3CC[C@H](Cc4nc(=O)s[nH]4)CC3)cc1)=N2` [Example 2-152]: the melting point lay within 225 to 226 °C. Also, the IC50 on human DGAT1 lay in the range of 10 to 100 nM.
Compound `Cc1nc(N)c2c(n1)OC(C)(C)C(c1ccc([C@H]3CC[C@H](CC(=O)N4CC(O)C(O)C4)CC3)cc1)=N2` (stereo partly drawn) [Example 2-136] displayed a melting point of 210 to 211 °C. In addition, the IC50 on human DGAT1 lay in the range of 10 to 100 nM.
Compound `CC1(C)Oc2ncnc(N)c2N=C1c1ccc([C@H]2CC[C@H](CN3CCC(Cc4ccccc4)CC3)CC2)cc1` [Example 2-228] came in with a melting point of 119 to 120 °C. Moreover, the half-inhibitory concentration (IC50) on human DGAT1 is more than 100 nM.
For the compound `CC(C)(CO)NC(=O)C[C@H]1CC[C@H](c2ccc(C3=Nc4c(N)ncnc4OC3(C)C)cc2)CC1` [Example 2-98], the melting point fell in the range of 131 to 133 °C. Also, the IC50 on human DGAT1 fell in the range of 10 to 100 nM.
In the same order, the values of `CCOC(=O)N1CCN(c2ccc(C3=Nc4c(N)ncnc4OC3(C)C)cc2)CC1` [Example 4-5] are 174 to 175 °C and more than 100 nM.
`CC(C)C(=O)N1CCN(C[C@H]2CC[C@H](c3ccc(C4=Nc5c(N)ncnc5OC4(C)C)cc3)CC2)CC1` [Example 2-241] showed a melting point of 120 to 126 °C. On human DGAT1, the IC50 lay in the range of 10 to 100 nM.
For `CC1(C)Oc2ncnc(N)c2N=C1c1ccc(N2CCC(C(=O)O)CC2)cc1` [Example 4-4], the melting point was more than 240 °C. At human DGAT1, the half-inhibitory concentration (IC50) fell in the range of 10 to 100 nM.
`CC1(C)Oc2ncnc(N)c2NC1c1ccc([C@H]2CC[C@H](NS(N)(=O)=O)CC2)cc1` (stereo partly drawn) [Example 2-222] gave a melting point of more than 250 °C. The IC50 at human DGAT1 is more than 100 nM.
Take `CC1(C)Oc2ncnc(N)c2N=C1c1ccc(N2CCCC2)cc1` [Example 4-6]: the melting point was in the range of 191 to 196 °C. The IC50 on human DGAT1 is more than 100 nM.
In the same order, the values of `Nc1ncnc2c1N=C(C1CCCCC1)CO2` [Example 1-22] are 142 °C and more than 100 nM.
Compound `Nc1ncnc2c1N=C(c1ccc(-c3ccccc3)cc1)CO2` [Example 1-11] displayed a melting point of more than 250 °C. In addition, the IC50 on human DGAT1 is more than 100 nM.
In the same order, the values of `Cc1nc(N)c2c(n1)OC(C)(C)C(c1ccc([C@H]3CC[C@H](CCC(=O)N4C[C@@H](O)[C@@H](O)C4)CC3)cc1)=N2` [Example 2-194] are 230 to 231 °C and 10 to 100 nM.
`Cc1nc(N)c2c(n1)OC(C)(C)C(c1ccc([C@H]3CC[C@H](CNC(=O)C(C)(C)O)CC3)cc1)=N2` [Example 2-150] returned a melting point of 228 to 229 °C. Moreover, the IC50 on human DGAT1 lay within 10 to 100 nM.
In the case of `CC1(C)Oc2ncnc(N)c2N=C1c1ccc([C@H]2CC[C@H](CNC(=O)[C@@H]3CCCN3)CC2)cc1` [Example 2-131], the melting point was 230 to 231 °C. At human DGAT1, the IC50 lay in the range of 10 to 100 nM.
As to `CC1(C)Oc2ncnc(N)c2N=C1c1ccc([C@H]2CC[C@H](CN3CCNCC3)CC2)cc1` [Example 2-244], the melting point was in the range of 208 to 209 °C. Also, at human DGAT1, the IC50 lay within 10 to 100 nM.
`Cc1nc(N)c2c(n1)OC(C)(C)C(c1ccc([C@H]3CC[C@H](CN4CCOC4=O)CC3)cc1)=N2` [Example 2-158]: the melting point is 240 to 241 °C. Further, the IC50 on human DGAT1 lay within 10 to 100 nM.
In turn, `Cc1nc(N)c2c(n1)OC(C)(C)C(c1ccc([C@H]3CC[C@H](CC(=O)Cc4nn[nH]n4)CC3)cc1)=N2` [Example 2-148] came in with a melting point of more than 250 °C. For the same compound, at human DGAT1, the IC50 was less than 10 nM.
The compound `Cc1nc(N)c2c(n1)OC(C)(C)C(c1ccc([C@H]3CC[C@H](CCC(=O)O)CC3)cc1)=N2` [Example 2-191] yielded a melting point of more than 250 °C. The half-maximal inhibitory concentration (IC50) on human DGAT1 is less than 10 nM.
On to `Nc1nc(N)c2c(n1)OCC(c1ccc(Br)cc1)=N2` [Example 1-26], for which the melting point was more than 220 °C. Besides, at human DGAT1, the IC50 is more than 100 nM.
Turning to `Cc1nc(N)c2c(n1)OC(C)(C)C(c1ccc([C@H]3CC[C@H](CCc4nc(=O)o[nH]4)CC3)cc1)=N2` [Example 2-195], the melting point is 250 °C (dec.). The IC50 on human DGAT1 was 10 to 100 nM.
`CC(C)(C)OC(=O)N1CCN(C[C@H]2CC[C@H](c3ccc(C4=Nc5c(N)ncnc5OC4(C)C)cc3)CC2)CC1` [Example 2-232] had a melting point of 171 to 172 °C. On human DGAT1, the IC50 fell in the range of 10 to 100 nM.
Compound `CCN(CC)C(=O)CC[C@H]1CC[C@H](c2ccc(C3=Nc4c(N)ncnc4OC3(C)C)cc2)CC1` [Example 2-189] registered a melting point of 192 to 194 °C. Besides, on human DGAT1, the IC50 lay within 10 to 100 nM.
`CC1(C)Oc2ncnc(N)c2N=C1c1ccc([C@H]2CC[C@H](CN3CC(=O)NC3=O)CC2)cc1` [Example 2-70]: the melting point fell in the range of 212 to 214 °C. Moreover, at human DGAT1, the IC50 lay within 10 to 100 nM.
The compound `CC1(C)Oc2ncnc(N)c2N=C1c1ccc([C@H]2CC[C@H](C(=O)N3CCOCC3)CC2)cc1` [Example 2-239] had a melting point of 233 to 235 °C. The IC50 on human DGAT1 was more than 100 nM.
The compound `CC1CCC(c2ccc(C3=Nc4c(N)ncnc4OC3(C)C)cc2)CC1` (stereo not drawn) [Example 2-41] came in with a melting point of 201 to 209 °C. For the same compound, at human DGAT1, the IC50 is more than 100 nM.
Compound `Cc1nc(N)c2c(n1)OC(C)(C)C(c1ccc([C@H]3CC[C@H](CNC(N)=O)CC3)c(Cl)c1)=N2` [Example 6-23] showed a melting point of 160 to 166 °C. Also, the IC50 on human DGAT1 was in the range of 10 to 100 nM.
Compound `Cc1nc(N)c2c(n1)OC(C)(C)C(c1ccc([C@H]3CC[C@H](CC(=O)O)CC3)c(Cl)c1)=N2` [Example 6] yielded a melting point of more than 230 °C. Also, the IC50 on human DGAT1 is less than 10 nM.
In the same order, the values of `CC1(C)Oc2ncnc(N)c2N=C1c1ccc([C@H]2CC[C@H](CSCC(=O)O)CC2)cc1` [Example 2-253] are 248 °C (dec.) and less than 10 nM.
For `CC1(C)Oc2ncnc(N)c2N=C1c1cccc(OCc2ccccc2)c1` [Example 5-2], the melting point was 130 to 131 °C. In addition, on human DGAT1, the IC50 was more than 100 nM.
In turn, `Cc1nc(N)c2c(n1)OC(C)(C)C(c1ccc(C3CCCCC3)cc1)=N2` [Example 2-26] registered a melting point of 226 to 227 °C. Besides, the IC50 on human DGAT1 is 10 to 100 nM.
For `CC1(C)Oc2ncnc(N)c2NC1c1ccc([C@H]2CC[C@H](Cc3nn[nH]n3)CC2)cc1` (stereo partly drawn) [Example 2-76], in that order: more than 250 °C and 10 to 100 nM.
The compound `Nc1ncnc2c1N=C(c1ccc(C3CCCCC3)cc1)CO2` [Example 1-25] returned a melting point of 219 to 221 °C. In addition, the IC50 on human DGAT1 is more than 100 nM.
In the same order, the values of `CN1CCN(C(=O)C[C@H]2CC[C@H](c3ccc(C4=Nc5c(N)ncnc5OC4(C)C)cc3)CC2)CC1` [Example 2-92] are 113 to 115 °C and 10 to 100 nM.
`CC1(C)Oc2ncnc(N)c2N=C1c1ccc([C@H]2CC[C@H](NC(=O)CO)CC2)cc1` [Example 2-234] yielded a melting point of 226 to 230 °C. The IC50 at human DGAT1 lay in the range of 10 to 100 nM.
In the same order, the values of `Cc1nc(N)c2c(n1)OC(C)(C)C(c1ccc([C@H]3CC[C@H](CNC(N)=O)CC3)cc1)=N2` [Example 2-161] are 219 to 221 °C and 10 to 100 nM.
For `CC(C)(O)C(=O)N1CCN(C[C@H]2CC[C@H](c3ccc(C4=Nc5c(N)ncnc5OC4(C)C)cc3)CC2)CC1` [Example 2-248], in that order: 207 to 208 °C and 10 to 100 nM.
Regarding `Cc1nc(N)c2c(n1)OC(C)(C)C(c1ccc([C@H]3CC[C@H](CNC(=O)CCO)CC3)cc1)=N2` [Example 2-140], the melting point is 223 to 224 °C. For the same compound, the IC50 at human DGAT1 fell in the range of 10 to 100 nM.
In the same order, the values of `Cc1nc(N)c2c(n1)OC(C)(C)C(c1ccc([C@H]3CC[C@H](CNC(=O)C(O)CCO)CC3)cc1)=N2` (stereo partly drawn) [Example 2-164] are 222 to 225 °C and 10 to 100 nM.
For the compound `Cc1ncc(C[C@H]2CC[C@H](c3ccc(C4=Nc5c(N)ncnc5OC4(C)C)cc3)CC2)[nH]1` [Example 2-113], the melting point was in the range of 172 to 173 °C. Besides, on human DGAT1, the IC50 lay in the range of 10 to 100 nM.
For `CC1(C)Oc2ncnc(N)c2N=C1c1ccc([C@H]2CC[C@H](CNS(C)(=O)=O)CC2)cc1` [Example 2-58], in that order: 251 to 252 °C and 10 to 100 nM.

The term IC50 denotes the point on the concentration scale where inhibition reaches its midpoint. For orientation: melting point means the temperature of the solid-liquid transition.
